What all share (type): in vivo
The subject of data set [1] is Beet Armyworm (Spodoptera exigua, LAPHEG). The experiment in a line: Bioassays on Beet Armyworm (BAW), 128-well diet tray assay. Particulars: Spodoptera exigua. The gist of the method: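 One to five second-instar larvae per well on artificial diet surface-treated with 50 μg/cm^2 test molecule (applied in 90:10 acetone-water, dried), eight wells per compound. Trays held vented at 25° C., 14:10 light-dark for five to seven days; percent mortality averaged over the eight wells.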

For data set [2], the system named is Cabbage Looper (Trichoplusia ni, TRIPNI). The experiment in a line: Bioassays on Cabbage Looper (CL), 128-well diet tray assay. Particulars: Trichoplusia ni. The gist of the method: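 Activity is mean percent mortality over eight wells of second-instar larvae exposed to diet treated at 50 μg/cm^2 for 5–7 days at 25° C.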
The test system of data set [3] is Yellow Fever Mosquito (Aedes aegypti, AEDSAE). The following applies: for YFM rating: Table ABC / ABC-DP rating. The gist of the method: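 Larvae ~1 day old, in liver powder/water; compound from 4000 ppm DMSO stock diluted with water/acetone (90:10); 6 reps; lidded, RT, 3 d; mortality scored per well, rated.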
Setting [4] is: Table ABC: Biological Results, species BAW, read-out: BAW.
[5] abbreviates: Table ABC: Biological Results, species CL, read-out: CL.
Where [6] appears, read: Table ABC: Biological Results, species YFM.
Setting [7] is: Beet Armyworm, rating class, read-out: BAW.
[8] abbreviates: Cabbage Looper, rating class, read-out: CL.
Where [9] appears, read: Yellow Fever Mosquito, rating class.
Setting [10] is: Beet Armyworm, Table ABC / ABC-DP rating, read-out: BAW rating.
Where [11] appears, read: Cabbage Looper, Table ABC / ABC-DP rating, read-out: CL rating.

Results on 17 compounds are retold here after US20250228239A1, “MOLECULES HAVING PESTICIDAL UTILITY, AND INTERMEDIATES, COMPOSITIONS, AND PROCESSES, RELATED THERETO” (priority 2024, published 2025).

Where two headings read alike, the source gives them in different places.

The term mortality denotes the share of the test organisms that died.

Take `O=C(Nc1ccc(F)cc1F)c1cc(NC(=O)[C@H]2[C@H](c3ccc(F)c(Cl)c3)C2(Cl)Cl)cc(F)c1Cl` (relative stereo) [F1153, trans-2-Chloro-5-(2,2-dichloro-3-(3-chloro-4-fluorophenyl)cyclopropane-1-carboxamido)-N-(2,4-difluorophenyl)-3-fluorobenzamide]: the pest or weed control at 50 µg/cm2 in data set [1] (setting [4]) and in data set [2] (setting [5]) was 50 to 100% each time. Further, the YFM result in data set [3] (setting [6]) is reported as “A (80–100)”.

Regarding `CC(=O)Nc1cc(F)c(F)cc1NC(=O)c1cc(NC(=O)[C@H]2[C@H](c3cc(Cl)cc(Cl)c3)C2(Cl)Cl)ccc1Cl` (relative stereo) [F1634, trans-N-(2-Acetamido-4,5-difluorophenyl)-2-chloro-5-(2,2-dichloro-3-(3,5-dichlorophenyl)cyclopropane-1-carboxamido)benzamide], the pest or weed control at 50 µg/cm2 in data set [1] (setting [7]) and in data set [2] (setting [8]) was 50 to 100% throughout. For the same compound, in data set [3] (setting [9]), the YFM result is recorded as “B (More than 0 – Less than 80)”.

Regarding `O=C(Nc1ccc(F)cc1)c1cc(NC(=O)[C@H]2[C@H](c3ccc(F)c(Cl)c3)C2(Cl)Cl)cc(C(F)(F)F)c1Cl` (relative stereo) [F1214, trans-2-Chloro-5-(2,2-dichloro-3-(3-chloro-4-fluorophenyl)cyclopropane-1-carboxamido)-N-(4-fluorophenyl)-3-(trifluoromethyl)benzamide], the pest or weed control at 50 µg/cm2 in data set [1] (setting [4]) and in data set [2] (setting [5]) was 50 to 100% throughout. For the same compound, in data set [3] (setting [6]), the YFM entry is given as “A (80–100)”.

For the compound `Cc1cc(NC(=O)[C@H]2[C@H](c3ccc(F)c(Cl)c3)C2(Cl)Cl)cc(C(=O)Nc2ccc(F)cc2)c1Cl` (relative stereo) [F1184, trans-2-Chloro-5-(2,2-dichloro-3-(3-chloro-4-fluorophenyl)cyclopropane-1-carboxamido)-N-(4-fluorophenyl)-3-methylbenzamide], the pest or weed control at 50 µg/cm2 in data set [1] (setting [4]) and in data set [2] (setting [5]) was 50 to 100% in each case. The YFM entry in data set [3] (setting [6]) was “A (80–100)”.

On to `CS(=O)(=O)CC(=O)Nc1c(F)ccc(NC(=O)c2cc(NC(=O)[C@H]3[C@H](c4ccc(F)c(C(F)(F)F)c4)C3(Cl)Cl)ccc2Cl)c1F` [F1299, 2-Chloro-5-((1R,3R)-2,2-dichloro-3-(4-fluoro-3-(trifluoromethyl)phenyl)cyclopropane-1-carboxamido)-N-(2,4-difluoro-3-(2-(methylsulfonyl)acetamido)phenyl)benzamide], for which the pest or weed control at 50 µg/cm2 in data set [1] (setting [4]) and in data set [2] (setting [5]) was 50 to 100% in each case. Besides, the YFM entry in data set [3] (setting [6]) is on record as “A (80–100)”.

As to `O=C(NNCCC(F)(F)F)c1cc(NC(=O)[C@H]2[C@H](c3cc(Cl)cc(Cl)c3)C2(Cl)Cl)ccc1Cl` (relative stereo) [F2550, trans-2,2-Dichloro-N-(4-chloro-3-(2-(3,3,3-trifluoropropyl)hydrazine-1-carbonyl)phenyl)-3-(3,5-dichlorophenyl)cyclopropane-1-carboxamide], the values for the pest or weed control at 50 µg/cm2 in data set [1] (setting [10]) and in data set [2] (setting [11]) were 0 to 50% and 50 to 100%, respectively. Further, in data set [3] (Yellow Fever Mosquito), the YFM rating result is given as “B (More than 0 – Less than 80)”.

`CCNC(=O)c1cc(NC(=O)[C@H]2[C@H](c3ccc(F)c(Cl)c3)C2(Cl)Cl)cc(C)c1Cl` (relative stereo) [F2037, trans-2-Chloro-5-(2,2-dichloro-3-(3-chloro-4-fluorophenyl)cyclopropane-1-carboxamido)-N-ethyl-3-methylbenzamide]: the pest or weed control at 50 µg/cm2 in data set [1] (setting [10]) and in data set [2] (setting [11]) was 50 to 100% in each case. For the same compound, the YFM rating entry in data set [3] (Yellow Fever Mosquito) is recorded as “A (80–100)”.

With `O=C(NN=Cc1cc(F)ccc1F)c1cc(NC(=O)[C@H]2[C@H](c3cc(Cl)cc(Cl)c3)C2(Cl)Cl)ccc1Cl` (relative stereo) [F3003, trans-2,2-Dichloro-N-(4-chloro-3-(2-(2,5-difluorobenzylidene)hydrazine-1-carbonyl)phenyl)-3-(3,5-dichlorophenyl)cyclopropane-1-carboxamide], the mortality at 50 µg/cm2 in data set [1] (168 h, second instar larvae, 50 μg/cm^2 of test molecule on artificial diet, 25° C., five to seven days, average of eight wells, read-out: BAW % Control (or Mortality) rating) was in the range of 50 to 100%; in data set [2] (168 h, second instar larvae, 50 μg/cm^2 of test molecule on artificial diet, 25° C., five to seven days, average of eight wells, read-out: CL % Control (or Mortality) rating), 50 to 100%. The pest or weed control at 50 µg/cm2 in data set [1] (setting [10]) and in data set [2] (setting [11]) was 50 to 100% in each case. Also, the YFM rating result in data set [3] (Yellow Fever Mosquito) was “A (80–100)”. Further, in data set [3] (about 1 day-old larvae, 4000 ppm master solution diluted with 90:10 water/acetone, 15 μL per well plus 220 μL larval mixture, 3 days, mortality), the “YFM % Control (or Mortality) rating” value was “A (80–100)”.

Consider `O=C(Nc1ccc(F)cc1F)c1cc(NC(=O)[C@H]2[C@H](c3cc(C(F)(F)F)ccc3Cl)C2(Cl)Cl)ccc1Cl` (relative stereo) [F1004, trans-2-Chloro-5-(2,2-dichloro-3-(2-chloro-5-(trifluoromethyl)phenyl)cyclopropane-1-carboxamido)-N-(2,4-difluorophenyl)benzamide], for which the pest or weed control at 50 µg/cm2 in data set [1] (setting [4]) and in data set [2] (setting [5]) was 50 to 100% in each case. The YFM result in data set [3] (setting [6]) is “A (80–100)”.

Take `O=C(Nc1c(F)ccc(NC(=O)C(F)F)c1F)c1cc(NC(=O)[C@H]2[C@H](c3ccc(F)c(C(F)(F)F)c3)C2(Cl)Cl)ccc1Cl` [F1394, 2-Chloro-5-((1R,3R)-2,2-dichloro-3-(4-fluoro-3-(trifluoromethyl)phenyl)cyclopropane-1-carboxamido)-N-(3-(2,2-difluoroacetamido)-2,6-difluorophenyl)benzamide]: the pest or weed control at 50 µg/cm2 in data set [1] (setting [7]) and in data set [2] (setting [8]) was 50 to 100% in each case. Moreover, the YFM result in data set [3] (setting [9]) is recorded as “A (80–100)”.

As to `CCC(=O)Nc1c(F)ccc(NC(=O)c2cc(NC(=O)[C@H]3[C@H](c4cc(F)cc(C(F)(F)F)c4)C3(Cl)Cl)ccc2Cl)c1F` [F1709, 2-Chloro-5-((1R,3R)-2,2-dichloro-3-(3-fluoro-5-(trifluoromethyl)phenyl)cyclopropane-1-carboxamido)-N-(2,4-difluoro-3-propionamidophenyl)benzamide], the pest or weed control at 50 µg/cm2 in data set [1] (setting [7]) and in data set [2] (setting [8]) was 50 to 100% in each case. Further, in data set [3] (setting [9]), the YFM result is recorded as “A (80–100)”.

As for `CC(C)(C)OC(=O)Nc1c(F)ccc(NC(=O)c2cc(NC(=O)[C@H]3[C@H](c4cc(Cl)cc(C(F)(F)F)c4)C3(Cl)Cl)ccc2Cl)c1F` (relative stereo) [F1119, trans-tert-Butyl-(3-(2-chloro-5-(2,2-dichloro-3-(3-chloro-5-(trifluoromethyl)phenyl)cyclopropane-1-carboxamido)benzamido)-2,6-difluorophenyl)carbamate], the pest or weed control at 50 µg/cm2 in data set [1] (setting [4]) and in data set [2] (setting [5]) was 50 to 100% throughout. Further, in data set [3] (setting [6]), the YFM result is listed as “A (80–100)”.

`Cc1cc(NC(=O)C(F)F)ccc1NC(=O)c1cc(NC(=O)[C@H]2[C@H](c3ccc(Cl)c(Cl)c3)C2(Cl)Cl)ccc1Cl` (relative stereo) [F1062, trans-2-Chloro-5-(2,2-dichloro-3-(3,4-dichlorophenyl)cyclopropane-1-carboxamido)-N-(4-(2,2-difluoroacetamido)-2-methylphenyl)benzamide]: the pest or weed control at 50 µg/cm2 in data set [1] (setting [4]) and in data set [2] (setting [5]) was 50 to 100% throughout. Also, the YFM result in data set [3] (setting [6]) is “A (80–100)”.

For `Cc1cc(NC(=O)[C@H]2[C@H](c3ccc(F)c(Cl)c3)C2(Cl)Cl)cc(C(=O)NCC(F)(F)F)c1F` (relative stereo) [F2030, trans-5-(2,2-Dichloro-3-(3-chloro-4-fluorophenyl)cyclopropane-1-carboxamido)-2-fluoro-3-methyl-N-(2,2,2-trifluoroethyl)benzamide], the pest or weed control at 50 µg/cm2 in data set [1] (setting [10]) and in data set [2] (setting [11]) was 50 to 100% throughout. The YFM rating result in data set [3] (Yellow Fever Mosquito) is listed as “A (80–100)”.

Turning to `O=C(Nc1ccc(F)cc1F)c1cc(NC(=O)[C@H]2[C@H](c3cc(Cl)c(Br)c(Cl)c3)C2(Cl)Cl)ccc1Cl` (relative stereo) [F1006, trans-5-(3-(4-Bromo-3,5-dichlorophenyl)-2,2-dichlorocyclopropane-1-carboxamido)-2-chloro-N-(2,4-difluorophenyl)benzamide], the pest or weed control at 50 µg/cm2 in data set [1] (setting [4]) and in data set [2] (setting [5]) was 50 to 100% each time. For the same compound, the YFM entry in data set [3] (setting [6]) is “A (80–100)”.

As for `Nc1c(F)ccc(NC(=O)c2cc(NC(=O)[C@H]3[C@@H](c4cc(Br)cc(S(F)(F)(F)(F)F)c4)C3(Cl)Cl)ccc2Cl)c1F` (relative stereo) [F1043, cis-N-(3-Amino-2,4-difluorophenyl)-5-(3-(3-bromo-5-(pentafluoro-λ^6-sulfanyl)phenyl)-2,2-dichlorocyclopropane-1-carboxamido)-2-chlorobenzamide], the pest or weed control at 50 µg/cm2 in data set [1] (setting [4]) and in data set [2] (setting [5]) was 50 to 100% in each case. Besides, the YFM entry in data set [3] (setting [6]) is recorded as “A (80–100)”.

Turning to `C=CCN(C(=O)c1cc(NC(=O)[C@H]2[C@H](c3ccc(F)c(C(F)(F)F)c3)C2(Cl)Cl)ccc1Cl)c1ccc(F)c(N)c1F` (relative stereo) [F1113, trans-N-Allyl-N-(3-amino-2,4-difluorophenyl)-2-chloro-5-(2,2-dichloro-3-(4-fluoro-3-(trifluoromethyl)phenyl)cyclopropane-1-carboxamido)benzamide], the pest or weed control at 50 µg/cm2 in data set [1] (setting [4]) and in data set [2] (setting [5]) was 50 to 100% throughout. For the same compound, in data set [3] (setting [6]), the YFM result was “A (80–100)”.
